In patent US7208506B2, “Heteroarylethenyl derivatives, their manufacture and use as pharmaceutical agents” (Hoffmann-La Roche Inc., priority 2005, dated 2007):
Where a name gives a salt, the structure may show the parent alone.

Test system: HCT 116 cells
Experiment: CellTiter-Glo Luminescent Cell Viability Assay in HCT 116 cells
Type: cell-based
Conditions: Homo sapiens, HCT-116, 120 h, HCT 116 human colon carcinoma cell viability, 120 h (5 days) incubation, 10 concentrations 30 μM to 0.0015 μM, triplicate
From the text: CellTiter-Glo™ Assay in HCT 116 Cells
The CellTiter-Glo™ Luminescent Cell Viability Assay (Promega) is a homogeneous method of determining the number of viable cells in culture based on quantitation of the ATP present, which signals the presence of metabolically active cells.
HCT 116 cells (human colon carcinoma, ATCC-No. CCl1-247) were cultivated in RPMI 1640 medium with GlutaMAX™ I (Invitrogen, Cat-No. 61870-010), 2.5% Fetal Calf Serum (FCS, Sigma Cat-No. F4135 (FBS)); 100 Units/ml penicillin/100 μg/ml streptomycin (=Pen/Strep from Invitrogen Cat. No. 15140). For the assay the cells were seeded in 384 well plates, 1000 cells per well, in the same medium. The next day the test compounds were added in various concentrations ranging from 30 μM to 0.0015 μM (10 concentrations, 1:3 diluted). After 5 days the CellTiter-Glo™ assay was done according to the instructions of the manufacturer (CellTiter-Glo™ Luminescent Cell Viability Assay, from Promega). In brief: the cell-plate was equilibrated to room temperature for approximately 30 minutes and than the CellTiter-Glo™ reagent was added. The contents were carefully mixed for 15 minutes to induce cell lysis. After 45 minutes the luminescent signal was measured in Victor 2, (scanning multiwell spectrophotometer, Wallac).
Medium: RPMI 1640 with GlutaMAX™ I (Invitrogen, Cat-Nr. 61870), 5% FCS (Sigma Cat.-No. F4135), Pen/Strep (Invitrogen, Cat No. 15140).
HCT116 (ATCC-No. CCl-247): 1000 cells in 60 μl per well of 384 well plate (Greiner 781098, μClear-plate white)
After seeding incubate plates 24 h at 37° C., 5% CO2
2nd. Day: Induction (Treatment with Compounds, 10 Concentrations):
In order to achieve a final concentration of 30 μM as highest concentration 3,5 μl of 10 mM compound stock solution were added directly to 163 μl media. Then step e) of the dilution procedure described below, was followed.
In order to achieve the second highest to the lowest concentrations, a serial dilution with dilution steps of 1:3 was followed according to the procedure (a–e) as described here below: • a) for the second highest concentration add 10 μl of 10 mM stock solution of compound to 20 μl dimethylsulfoxide (DMSO) • b) dilute 8×1:3 (always 10 μl to 20 μl DMSO) in this DMSO dilution row (results in 9 wells with concentrations from 3333.3 μM to 0.51 μM) • c) dilute each concentration 1: 47.6 (3.5 μl compound dilution to 163 μl media) • e) add 10 μl of every concentration to 60 μl media in the cell plate resulting in final concentration of DMSO : 0.3% in every well and resulting in 10 final concentration of compounds ranging from 30 μM to 0.0015 μM. • Each compound is tested in triplicate. • Incubate 120 h (5 days) at 37° C., 5% CO2
Analysis: • Add 30 μl CellTiter-Glo™ Reagent per well, • shake 15 minutes at room temperature • incubate further 45 minutes at room temperature without shaking
Measurement: • Victor 2 scanning multiwell spectrophotometer (Wallac), Luminescence mode (0.5 sec/read, 477 nm) • Determine IC50 using a non-linear curve fit (XLfit software (ID Business Solution Ltd., Guilford, Surrey, UK))

| Compound | IC50 [µM] |
| --- | --- |
| O=C(NS(=O)(=O)/C=C/c1cccnc1)c1ccc(Br)cc1Cl [Example 4-11, (E)-2-Pyridin-3-yl-ethenesulfonic acid 4-bromo-2-chloro-benzoylamide; sodium salt] | 0.5 to 15 |
| Cc1noc(C)c1/C=C/S(=O)(=O)NC(=O)c1ccc(Cl)cc1Cl [Example 1-11, (E)-2-(3,5-Dimethyl-isoxazol-4-yl)-ethenesulfonic acid 2,4-dichloro-benzoylamide; sodium salt] | 0.5 to 15 |
| O=C(NS(=O)(=O)/C=C/c1sccc1Br)c1ccc(Cl)cc1Cl [Example 2-24, (E)-2-(3-Bromo-thiophen-2-yl)-ethenesulfonic acid 2,4-dichloro-benzoylamide; sodium salt] | 0.5 to 15 |
| COc1ccc(/C=C/S(=O)(=O)NC(=O)c2ccc(Cl)cc2C)cn1 [Example 4-12, (E)-2-(6-Methoxy-pyridin-3-yl)-ethenesulfonic acid 4-chloro-2-methyl-benzoylamide; sodium salt] | 0.5 to 15 |
| O=C(NS(=O)(=O)/C=C/c1ccsc1)c1ccc(F)cc1Br [Example 3-9, (E)-2-Thiophen-3-yl-ethenesulfonic acid 2-bromo-4-fluoro-benzoylamide; sodium salt] | 0.5 to 15 |
| Cc1ccc(C(=O)NS(=O)(=O)/C=C/c2ccncc2)c(C)c1 [Example 4-17, (E)-2-Pyridin-4-yl-ethenesulfonic acid 2,4-dimethyl-benzoylamide; sodium salt] | 0.5 to 15 |
| O=C(NS(=O)(=O)/C=C/c1csc2ccccc12)c1ccc(F)cc1Br [Example 4-19, (E)-2-Benzo[b]thiophen-3-yl-ethenesulfonic acid 2-bromo-4-fluoro-benzoylamide; sodium salt] | 0.5 to 15 |
| O=C(NS(=O)(=O)/C=C/c1ccccn1)c1ccc(Cl)cc1Cl [Example 2-2, (E)-2-Pyridin-2-yl-ethenesulfonic acid 2,4-dichloro-benzoylamide; sodium salt] | 0.5 to 15 |
| O=C(NS(=O)(=O)/C=C/c1csc2ccccc12)c1ccc(F)cc1Cl [Example 2-26, (E)-2-Benzo[b]thiophen-3-yl-ethenesulfonic acid 2-chloro-4-fluoro-benzoylamide; sodium salt] | 0.5 to 15 |
| O=C(NS(=O)(=O)/C=C/c1ccsc1)c1ccc(C(F)(F)F)cc1C(F)(F)F [Example 1-6, (E)-2-Thiophen-3-yl-ethenesulfonic acid 2,4-bis-trifluoromethyl-benzoylamide; sodium salt] | 0.5 to 15 |
| O=C(NS(=O)(=O)/C=C/c1ccccn1)c1ccc(F)cc1C(F)(F)F [Example 2-7, (E)-2-Pyridin-2-yl-ethenesulfonic acid 4-fluoro-2-trifluoromethyl-benzoylamide; sodium salt] | 0.5 to 15 |
| O=C(NS(=O)(=O)/C=C/c1cccnc1)c1ccc(C(F)(F)F)cc1C(F)(F)F [Example 2-14, (E)-2-Pyridin-3-yl-ethenesulfonic acid 2,4-bis-trifluoromethyl-benzoylamide; sodium salt] | 0.5 to 15 |
| Cc1cccc(/C=C/S(=O)(=O)NC(=O)c2ccc(F)cc2Cl)n1 [Example 2-25, (E)-2-(6-Methyl-pyridin-2-yl)-ethenesulfonic acid 2-chloro-4-fluoro-benzoylamide; sodium salt] | 0.5 to 15 |
| O=C(NS(=O)(=O)/C=C/c1ccc(Cl)nc1)c1ccc(Cl)cc1Cl [Example 2-20, (E)-2-(6-Chloro-pyridin-3-yl)-ethenesulfonic acid 2,4-dichloro-benzoylamide; sodium salt] | 0.5 to 15 |
| Cc1cc(F)ccc1C(=O)NS(=O)(=O)/C=C/c1cccs1 [Example 5-1, (E)-2-Thiophen-2-yl-ethenesulfonic acid 4-fluoro-2-methyl-benzoylamide] | 0.5 to 15 |
| Cc1ccc(C(=O)NS(=O)(=O)/C=C/c2cccs2)c(C)c1 [Example 3-13, (E)-2-Thiophen-2-yl-ethenesulfonic acid 2,4-dimethyl-benzoylamide; sodium salt] | 0.5 to 15 |

| Compound | IC50 [µM] |
| --- | --- |
| O=C(NS(=O)(=O)/C=C/c1csc2ccccc12)c1ccc(Cl)cc1Cl [Example 2-27, (E)-2-Benzo[b]thiophen-3-yl-ethenesulfonic acid 2,4-dichloro-benzoylamide; sodium salt] | 0.5 to 15 |
| COc1cc(Cl)ccc1C(=O)NS(=O)(=O)/C=C/c1ccsc1 [Example 3-4, (E)-2-Thiophen-3-yl-ethenesulfonic acid 4-chloro-2-methoxy-benzoylamide; sodium salt] | 0.5 to 15 |
| Cc1csc(/C=C/S(=O)(=O)NC(=O)c2ccc(Cl)cc2Cl)c1 [Example 1-10, (E)-2-(4-Methyl-thiophen-2-yl)-ethenesulfonic acid 2,4-dichloro-benzoylamide] | 0.5 to 15 |
| O=C(NS(=O)(=O)/C=C/c1ccsc1)c1ccc(F)cc1C(F)(F)F [Example 1-5, (E)-2-Thiophen-3-yl-ethenesulfonic acid 4-fluoro-2-trifluoromethyl-benzoylamide; sodium salt] | 0.5 to 15 |
| O=C(NS(=O)(=O)/C=C/c1ccccn1)c1ccc(Br)cc1Cl [Example 4-7, (E)-2-Pyridin-2-yl-ethenesulfonic acid 4-bromo-2-chloro-benzoylamide; sodium salt] | 0.5 to 15 |
| O=C(NS(=O)(=O)/C=C/c1cccnc1)c1ccc(Cl)cc1Cl [Example 2-1, (E)-2-Pyridin-3-yl-ethenesulfonic acid 2,4-dichloro-benzoylamide; sodium salt] | 3.41 |
| O=C(NS(=O)(=O)/C=C/c1nccs1)c1ccc(Cl)cc1Cl [Example 2-22, (E)-2-Thiazol-2-yl-ethenesulfonic acid 2,4-dichloro-benzoylamide; sodium salt] | 0.5 to 15 |
| COc1ccc(/C=C/S(=O)(=O)NC(=O)c2ccc(Cl)cc2Cl)cn1 [Example 2-4, (E)-2-(6-Methoxy-pyridin-3-yl)-ethenesulfonic acid 2,4-dichloro-benzoylamide; sodium salt] | 5.02 |
| O=C(NS(=O)(=O)/C=C/c1csc2ccccc12)c1ccc(C(F)(F)F)cc1C(F)(F)F [Example 2-29, (E)-2-Benzo[b]thiophen-3-yl-ethenesulfonic acid 2,4-ditrifluoromethyl-benzoylamide; sodium salt] | 0.5 to 15 |
| O=C(NS(=O)(=O)/C=C/c1ccsc1)c1ccc(F)cc1Cl [Example 1-3, (E)-2-Thiophen-3-yl-ethenesulfonic acid 2-chloro-4-fluoro-benzoylamide; sodium salt] | 0.5 to 15 |
| COc1cc(Cl)ccc1C(=O)NS(=O)(=O)/C=C/c1cccnc1 [Example 4-1, (E)-2-Pyridin-3-yl-ethenesulfonic acid 4-chloro-2-methoxy-benzoylamide; sodium salt] | 0.5 to 15 |
| Cc1ccsc1/C=C/S(=O)(=O)NC(=O)c1ccc(Cl)cc1Cl [Example 1-9, (E)-2-(3-Methyl-thiophen-2-yl)-ethenesulfonic acid 2,4-dichloro-benzoylamide] | 0.5 to 15 |
| Cc1cc(Cl)ccc1C(=O)NS(=O)(=O)/C=C/c1csc2ccccc12 [Example 4-18, (E)-2-Benzo[b]thiophen-3-yl-ethenesulfonic acid 4-chloro-2-methyl-benzoylamide; sodium salt] | 0.5 to 15 |
| Cc1ccc(C(=O)NS(=O)(=O)/C=C/c2cccnc2)c(C)c1 [Example 4-16, (E)-2-Pyridin-3-yl-ethenesulfonic acid 2,4-dimethyl-benzoylamide; sodium salt] | 0.5 to 15 |
| Cc1ccc(C(=O)NS(=O)(=O)/C=C/c2ccsc2)c(Br)c1 [Example 3-7, (E)-2-Thiophen-3-yl-ethenesulfonic acid 2-bromo-4-methyl-benzoylamide; sodium salt] | 0.5 to 15 |
| Cc1cc(Br)ccc1C(=O)NS(=O)(=O)/C=C/c1ccccn1 [Example 4-4, (E)-2-Pyridin-2-yl-ethenesulfonic acid 4-bromo-2-methyl-benzoylamide; sodium salt] | 0.5 to 15 |
